Test results published in ChEMBL document CHEMBL6103672, “Discovery of HMPL-306 (Ranosidenib), a New Potent and Selective Dual Inhibitor of Mutant IDH1 and 2 in Clinical Development for Cancer Treatment” (ACS Med Chem Lett, 2025).

Tests used:
[1] = Inhibition of IDH2 R140Q mutant in human U-87 MG cells incubated for 72 hrs by measuring 2-HG production by fluorescence based analysis; format: functional, cell-based, U-87MG ATCC; details: Homo sapiens, U-87 MG, 72 h
[2] = In vivo inhibition of 2-HG in BALB/c nude mouse xenografted with human U-87 MG cells harboring IDH2 R140Q mutant at 25 mg/kg, po measured after 40 hrs post dose; format: functional; details: Mus musculus, BALB/c, U-87 MG
[3] = AUC(0 to t) in male ICR mouse at 2.5 mg/kg, iv measured after 24 hrs by LC/MS/MS analysis; format: ADME, organism-based; details: in vivo
[4] = Clearance in male Sprague-Dawley rat at 1 mg/kg, iv measured after 24 hrs by LC/MS/MS analysis; format: ADME, organism-based; details: in vivo
[5] = Ratio of drug concentration in brain to plasma of BALB/c nude mouse xenografted with human U-87 MG cells harboring IDH2 R140Q mutant at 50 mg/kg measured after 24 hrs by LC/MS/MS analysis; format: ADME, organism-based; details: read-out: BPR
[6] = Inhibition of IDH1 R132C mutant in human HT-1080 cells incubated for 72 hrs by measuring 2-HG production by fluorescence based analysis; format: functional, cell-based; details: HT-1080, 72 h
[7] = AUC(0 to infinity) in male ICR mouse at 10 mg/kg, po measured after 8 hrs by LC/MS/MS analysis; format: ADME, organism-based; details: in vivo
[8] = Inhibition of IDH1 R132H mutant in human U-87 MG cells incubated for 72 hrs by measuring 2-HG production by fluorescence based analysis; format: functional, cell-based, U-87MG ATCC; details: Homo sapiens, U-87 MG, 72 h
[9] = AUC(0 to infinity) in male ICR mouse at 2.5 mg/kg, iv measured after 8 hrs by LC/MS/MS analysis; format: ADME, organism-based; details: in vivo
[10] = AUC(0 to t) in male Sprague-Dawley rat at 5 mg/kg, po measured after 144 hrs by LC/MS/MS analysis; format: ADME, organism-based; details: in vivo
[11] = AUC(0 to t) in male ICR mouse at 10 mg/kg, po measured upto 24 hrs by LC/MS/MS analysis; format: ADME, organism-based; details: in vivo

IC50 [1]: 0.031 µM | AUC(0-t) at 24 h [3]: 10400 ng·h/mL | clearance [4]: 0.8 mL/min/kg | Kp at 24 h [5]: 2.9 | IC50 [6]: 0.026 µM | AUC(0-inf) [7]: 62000 ng·h/mL | IC50 [8]: 0.05 µM | AUC(0-inf) [9]: 12700 ng·h/mL | AUC(0-t) at 144 h [10]: 96600 ng·h/mL | AUC(0-t) at 24 h [11]: 35000 ng·h/mL
SMILES: C[C@@H](Nc1nc(N[C@H](C)C(F)(F)F)nc(C2=C(F)[C@H](O)C(F)(F)CC2)n1)C(F)(F)F [RANOSIDENIB]
inhibition in vivo at 25 mg/kg [2]: 93%
